Entries after “also recorded” stand apart in the source; their conditions may differ. Like-named read-outs stand apart in the source and are kept apart here.
How the values were obtained:
Hsp90β-p50^Cdc37 complex = test system: Hsp90β-p50^Cdc37 complex; parameters: method as in PMID 19858214; settings: ref [26]; cited from earlier work
hHsp90β-FL [1] = settings: read-out: Reported Kd, cited from earlier work
(p)Hsp90-p50^Cdc37 = (p)Hsp90-p50^Cdc37 (Homo sapiens, UniProt P08238); experiment: ELISA complex formation, CK2-phosphorylated Hsp90β; settings: ELISA
(p)Hsp90-p50^Cdc37, sequence (P08238 whole entry): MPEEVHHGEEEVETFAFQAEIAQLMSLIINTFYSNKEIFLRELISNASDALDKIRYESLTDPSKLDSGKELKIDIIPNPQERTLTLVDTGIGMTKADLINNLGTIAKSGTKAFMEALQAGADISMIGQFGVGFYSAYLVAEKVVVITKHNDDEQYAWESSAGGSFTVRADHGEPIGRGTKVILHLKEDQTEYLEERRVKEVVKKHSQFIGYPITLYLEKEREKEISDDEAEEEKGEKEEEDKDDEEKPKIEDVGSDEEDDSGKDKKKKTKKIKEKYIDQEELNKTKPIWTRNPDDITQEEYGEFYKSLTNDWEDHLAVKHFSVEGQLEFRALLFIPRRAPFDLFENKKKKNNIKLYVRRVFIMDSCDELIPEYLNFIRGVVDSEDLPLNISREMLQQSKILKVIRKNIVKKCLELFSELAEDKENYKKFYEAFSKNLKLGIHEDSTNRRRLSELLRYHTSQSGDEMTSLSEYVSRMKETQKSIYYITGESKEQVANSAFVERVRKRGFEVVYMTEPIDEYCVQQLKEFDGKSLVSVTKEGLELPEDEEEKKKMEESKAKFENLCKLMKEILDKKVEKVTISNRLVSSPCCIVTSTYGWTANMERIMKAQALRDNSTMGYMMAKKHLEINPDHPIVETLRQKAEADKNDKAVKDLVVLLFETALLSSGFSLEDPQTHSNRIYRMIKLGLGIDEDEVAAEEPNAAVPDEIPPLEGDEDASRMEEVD
Procedure: (§2) Phosphorylation of full-length Hsp90β and p50^Cdc37 was performed using purified full-length CK2α. The reaction was carried out in a 2.5 mL volume containing 50 µM Hsp90β or p50^Cdc37, 0.5 µM CK2α, 0.5 mM ATP, 20 mM Tris (pH 7.5), 50 mM KCl, and 10 mM MgCl2, and was incubated for 1 h at 30 °C. Samples were removed for analysis of phosphorylation status, and the proteins were re-buffered into 50 mM HEPES (pH 7.5), 150 mM NaCl, and 1 mM DTT (ELISA), or into 50 mM HEPES (pH 7.5) for ITC, using PD-10 gravity columns (GE Healthcare). Dephosphorylation was performed using 2.5 units of FastAP (alkaline phosphatase from Thermo Scientific) in buffer containing 10 mM Tris (pH 8.0 at 37 °C), 5 mM MgCl2, 100 mM KCl, 0.02% Triton-X 100, and 0.5 mg/mL BSA for 1 h at 37 °C.
(§3) Purified GST-p50^Cdc37 (4 µM) or control (purified GST alone, 4 µM) was added to glutathione-coated 96-well plates (Pierce) in 100 μL protein buffer (50 mM HEPES, pH 7.5, 150 mM NaCl, 10 mM MgCl2, 0.05% Tween-20, and 0.1% BSA) and incubated for 1 h at room temperature (triplicate wells per sample). […] The mixtures were then added to the wells (100 μL per well, in triplicates) and incubated for 1 h at room temperature before washing. The wells were incubated with anti-His6-tag mAb (1 mg/mL stock, Abcam), diluted 1:2000 in antibody buffer (50 mM HEPES pH 7.5, 150 mM NaCl, 10 mM MgCl2, 0.05% Tween-20, and 1% BSA) for 1 h, followed by secondary antibody (horse anti-mouse HRP-conjugated IgG, Cell Signaling Technology), diluted 1:5000 in antibody buffer, for 1.5 h at room temperature. After washing three times with 1× HBS-T and two times with 1× HBS, 200 μL HRP substrate (SigmaFast OPD) was added per well. The plates were incubated at room temperature, and the absorbance was read at 450 nm after 15 min and 30 min using a SpectraMax 340 PC plate reader (Molecular Devices). For dose-response measurements, absorption values were corrected for unspecific binding of Hsp90 to immobilized GST, and the raw data were fit to equation (1), where f(I) is the fraction of complex remaining, [I] is the concentration of the inhibitor, IC50 is the half maximal inhibitory concentration against Hsp90-p50^Cdc37 complex formation, n is the Hill slope coefficient, min is the signal remaining at high inhibitor concentrations and max is the signal of the uninhibited complex. Corrected absorption values (ΔOD) for the uninhibited Hsp90-p50^Cdc37 complex (unphosphorylated and phosphorylated) were in the range of 0.4–1.0. Data were expressed relative to the respective max value of Equation (1). (1) f(I)=min+(max−min)/1+([I]/IC50)^n

(p)Hsp90-(p)p50^Cdc37 = (p)Hsp90-(p)p50^Cdc37 (Homo sapiens, UniProt P08238); experiment: ELISA complex formation, both proteins CK2-phosphorylated; settings: for IC50: ELISA, (p)Hsp90-(p)p50^Cdc37 (phosphorylated complex); for disruption of the phosphorylated complex: CK2-phosphorylated complex
(p)Hsp90-(p)p50^Cdc37, sequence (P08238 whole entry): as above
Procedure: as §2, §3

ΔHsp90-p50^Cdc37 = target: T1, ΔHsp90-p50^Cdc37 (Homo sapiens, UniProt P08238, DEL220-271/E274G/I272G/K273G/K275G); experiment: ELISA complex formation, ΔHsp90; format: binding
T1 construct: human Hsp90β (1-724 Δ220-275); made in house; host or cells: E. coli BL21 Star (DE3) (ΔHsp90β); E. coli BL21 (DE3) (GST-p50Cdc37)
T1 sequence (P08238 with tags, fused parts or gaps DEL220-271/I272G/K273G/E274G/K275G): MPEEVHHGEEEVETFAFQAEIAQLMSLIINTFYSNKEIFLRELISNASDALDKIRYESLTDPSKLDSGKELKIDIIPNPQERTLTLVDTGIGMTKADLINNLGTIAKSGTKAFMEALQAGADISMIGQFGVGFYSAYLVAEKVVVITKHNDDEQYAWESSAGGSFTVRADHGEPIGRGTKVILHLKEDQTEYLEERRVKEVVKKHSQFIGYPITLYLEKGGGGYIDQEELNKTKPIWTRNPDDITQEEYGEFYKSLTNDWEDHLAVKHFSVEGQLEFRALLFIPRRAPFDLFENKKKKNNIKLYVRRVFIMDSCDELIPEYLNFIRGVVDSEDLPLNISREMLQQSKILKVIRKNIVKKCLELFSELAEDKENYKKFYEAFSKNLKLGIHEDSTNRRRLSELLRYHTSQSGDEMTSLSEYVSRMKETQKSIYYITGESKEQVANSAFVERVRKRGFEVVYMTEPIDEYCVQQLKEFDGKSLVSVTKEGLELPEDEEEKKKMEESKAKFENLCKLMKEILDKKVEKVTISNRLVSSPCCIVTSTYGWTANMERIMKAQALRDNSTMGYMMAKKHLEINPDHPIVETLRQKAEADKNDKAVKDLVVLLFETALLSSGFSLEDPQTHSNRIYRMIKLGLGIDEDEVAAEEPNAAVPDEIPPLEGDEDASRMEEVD

[2] = target: T2, ΔHsp90β interaction with GST-p50^Cdc37 (Homo sapiens, UniProt P08238, DEL220-271/E274G/I272G/K273G/K275G); experiment: GST pull-down of ΔHsp90β with GST-p50^Cdc37; format: binding; settings: for effect on complex in GST pull-down: 1 mM nucleotide or 0.1 mM inhibitor, 15 min incubation, SDS-PAGE
T2 construct: human Hsp90β (1-724 Δ220-275); made in house; host or cells: E. coli BL21 Star (DE3) (ΔHsp90β); E. coli BL21 (DE3) (GST-p50Cdc37)
T2 sequence (P08238 with tags, fused parts or gaps DEL220-271/I272G/K273G/E274G/K275G): as above
Procedure: GST pull-down experiments were carried out using 1 mL GST 4 FastFlow resin in 8 mL Flex columns (Kontes). All experiments were performed at room temperature by gravity flow. Loading and wash buffers contained 50 mM Tris pH 8, 50 mM KCl, 5 mM MgCl2, and 5% DMSO. The elution buffer contained an additional 10 mM reduced glutathione. […] The resin was washed with 20 CV wash buffer, and samples were eluted with 2 CV elution buffer. Eluted protein was analysed on 12% SDS-PAGE stained with Coomassie blue for visualization.

hHsp90β-FL [3] = target: T3, hHsp90β-FL (Homo sapiens, UniProt P08238); experiment: ITC direct binding to full-length Hsp90β; settings: for Kd: unphosphorylated hHsp90β-FL, 30 °C, read-out: Observed Kd
T3 construct: The gene encoding human full-length Hsp90β was subcloned from T47D cell line cDNA; His6 (N); made in house; host or cells: E. coli BL21 Star (DE3)
Procedure: (§1) Binding of p50^Cdc37 and small molecules to Hsp90 was analyzed using a MicroCal iTC200 titration calorimeter (GE Healthcare). Compounds or p50^Cdc37 were titrated into a solution of Hsp90 using the following concentrations: p50^Cdc37 (200 µM) into Hsp90 (20 µM), nucleotides (600 µM) into Hsp90 (30 µM), inhibitors (300 µM) into Hsp90 (30 µM). […] All experiments were conducted in 50 mM HEPES pH 7.5, 10 mM MgCl2 at 30 °C. For titration of inhibitors, the buffer contained 5% DMSO. […] Generation of heat due to dilution was determined in separate experiments by diluting protein into buffer and subtracting these as blank values for each injection. Corrected heat values were fitted using a nonlinear least squares curve-fitting algorithm (Microcal Origin 7.0) to obtain the stoichiometry (n), binding constants (Ka, Kd), and change in enthalpy for each enzyme-ligand interaction (ΔH).

hΔHsp90β = target: T4, hΔHsp90β (Homo sapiens, UniProt P08238, DEL220-271/E274G/I272G/K273G/K275G); experiment: ITC direct binding to Hsp90β deletion mutant lacking the charged linker; settings: 50 mM HEPES pH 7.5, 10 mM MgCl2, 30 °C, read-out: Observed Kd
T4 construct: human Hsp90β (1-724 Δ220-275); His6 (N); made in house; host or cells: E. coli BL21 Star (DE3)
T4 sequence (P08238 with tags, fused parts or gaps DEL220-271/I272G/K273G/E274G/K275G): as above
Text: The gene encoding human full-length Hsp90β was subcloned from T47D cell line cDNA, and human full-length CK2α was subcloned from MCF7 cell line cDNA, both a kind gift from Dr. Jonathan Lancaster, Moffitt Cancer Center. […] The deleted sections in the two Hsp90 genes were each replaced by four glycine residues. Hsp90α and Hsp90β were subcloned into the pET28a vector (Novagen), and p50^Cdc37 was subcloned into a modified pET28a vector containing a maltose-binding protein (MBP) solubility tag and a PreScission protease cleavage site using restriction enzymes BamHI and NotI (Fermentas) and T4 DNA ligase (Invitrogen) following the manufacturers’ instructions. BamHI was substituted with NdeI for full-length Hsp90β. p50^Cdc37 was also subcloned into the pGEX6P-1 vector (GE Healthcare) using the same procedure as above to provide an N-terminal GST-tag for GST pull-down and ELISA experiments. The plasmids were transformed into E. coli BL21 Star (DE3) (Hsp90α and Hsp90β, Invitrogen), Tuner (DE3) (p50^Cdc37 modified pET28a, Novagen), or BL21 (DE3) (p50^Cdc37 pGEX6P-1, Stratagene) expression strains. Transformed cells were grown in LB broth at 37 °C until the OD600 reached 0.4, then the temperature was lowered to 16 °C, and cells were induced with 0.1 mM IPTG at OD600 = 0.5–0.7. Cultures were then grown for 20–24 h before harvesting by centrifugation (30 min at 30,000× g, 4 °C).
as §1

h(p)Hsp90β-FL = h(p)Hsp90β-FL (Homo sapiens, UniProt P08238); experiment: ITC direct binding to CK2-phosphorylated full-length Hsp90β; settings: 30 °C, read-out: Observed Kd
h(p)Hsp90β-FL, sequence (P08238 whole entry): as the sequence (P08238 whole entry) above
Procedure: as §1

[4] = target: T5, interaction of the N-terminal domain of Hsp90β with p50^Cdc37 (Homo sapiens, UniProt P08238); experiment: ITC of N-terminal Hsp90β with p50^Cdc37 in the presence of ADP; format: binding; settings: 5 mM ADP
T5 construct: human N-terminal Hsp90β (1-219, denoted Hsp90β-N); His6 (N); made in house; host or cells: E. coli BL21 Star (DE3) (Hsp90β-N); E. coli Tuner (DE3) (p50Cdc37)
T5 sequence (P08238 1-219): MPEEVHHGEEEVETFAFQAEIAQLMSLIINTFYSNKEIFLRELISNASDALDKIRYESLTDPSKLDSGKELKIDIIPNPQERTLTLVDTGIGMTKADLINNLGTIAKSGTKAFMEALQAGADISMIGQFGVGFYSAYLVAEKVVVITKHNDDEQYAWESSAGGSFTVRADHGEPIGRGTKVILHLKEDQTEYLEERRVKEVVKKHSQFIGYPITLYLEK
Procedure: Binding of p50^Cdc37 and small molecules to Hsp90 was analyzed using a MicroCal iTC200 titration calorimeter (GE Healthcare). Compounds or p50^Cdc37 were titrated into a solution of Hsp90 using the following concentrations: p50^Cdc37 (200 µM) into Hsp90 (20 µM), nucleotides (600 µM) into Hsp90 (30 µM), inhibitors (300 µM) into Hsp90 (30 µM). Titrations of compounds into p50^Cdc37 were performed with similar compound/protein ratios. All experiments were conducted in 50 mM HEPES pH 7.5, 10 mM MgCl2 at 30 °C. For titration of inhibitors, the buffer contained 5% DMSO. Typically, an initial 0.5 µL injection was followed by 19 injections of 2.2 µL of syringe solution (compound or p50^Cdc37) into a 200 µL protein solution of Hsp90 constantly stirred at 1000 rpm, and data were recorded for 180 s between injections. Generation of heat due to dilution was determined in separate experiments by diluting protein into buffer and subtracting these as blank values for each injection. Corrected heat values were fitted using a nonlinear least squares curve-fitting algorithm (Microcal Origin 7.0) to obtain the stoichiometry (n), binding constants (Ka, Kd), and change in enthalpy for each enzyme-ligand interaction (ΔH).

Hsp90-p50^Cdc37 = target: T6, Hsp90-p50^Cdc37 (Homo sapiens, UniProt P08238); experiment: ELISA complex formation, immobilized GST-p50^Cdc37 and Hsp90β, unphosphorylated; format: binding; settings: for IC50: ELISA, Hsp90-p50^Cdc37 (unphosphorylated); for inhibitory activity against the complex: unphosphorylated or phosphorylated complex, in vitro
T6 construct: The gene encoding human full-length Hsp90β was subcloned from T47D cell line cDNA; made in house; host or cells: E. coli BL21 Star (DE3) (Hsp90β); E. coli BL21 (DE3) (GST-p50Cdc37)

Hsp90-(p)p50^Cdc37 = target: T7, Hsp90-(p)p50^Cdc37 (Homo sapiens, UniProt P08238); experiment: ELISA complex formation, CK2-phosphorylated p50^Cdc37; format: binding
T7 construct: The gene encoding human full-length Hsp90β was subcloned from T47D cell line cDNA; made in house; host or cells: E. coli BL21 Star (DE3) (Hsp90β); E. coli BL21 (DE3) (GST-p50Cdc37)

yHsp82-FL = settings: yHsp82-FL; ref [34]; read-out: Reported Kd; cited from earlier work
[5] = test system: yeast Hsp90 complex formation with human p50^Cdc37 or yeast Cdc37 protein; parameters: method as in PMID 11916974; settings: ref [39]; cited from earlier work

Compound | effect on complex formation between Hsp90β and p50^Cdc37 (Hsp90β-p50^Cdc37 complex) | IC50 ((p)Hsp90-p50^Cdc37; (p)Hsp90-p50^Cdc37) | IC50 ((p)Hsp90-(p)p50^Cdc37) | IC50 (ΔHsp90-p50^Cdc37) | effect on complex in GST pull-down [2] | Kd (hHsp90β-FL [3]) | Kd (hΔHsp90β) | Kd (h(p)Hsp90β-FL) | IC50 (Hsp90-p50^Cdc37) | Kd (hHsp90β-FL [1]; ref [31]) | inhibitory activity against the complex (Hsp90-p50^Cdc37) | also measured
C=CCNC1=C2C[C@@H](C)C[C@H](OC)[C@H](O)[C@@H](C)/C=C(\C)[C@H](OC(N)=O)[C@@H](OC)/C=C\C=C(/C)C(=O)NC(=CC1=O)C2=O [17-AAG, Tanespimycin] | showed no effect | – | – | – | – | – | – | – | – | – | – | –
CO[C@H]1/C=C\C=C(/C)C(=O)NC2=CC(=O)C(NCCN(C)C)=C(C[C@@H](C)C[C@H](OC)[C@H](O)[C@@H](C)/C=C(\C)[C@@H]1OC(N)=O)C2=O [17-DMAG] | showed no effect | – | – | – | – | – | – | – | – | – | – | Kd (hHsp90β-FL [1]; ref [33]): 0.35 µM
Nc1ncnc2c1ncn2[C@@H]1O[C@H](COP(=O)(O)OP(=O)(O)O)[C@@H](O)[C@H]1O [ADP] | did not exert inhibitory activity; also recorded: showed no effect | 220 ± 24 µM | 32 ± 5.6 µM | 400 ± 81 µM | inhibited formation of the complex; also recorded: caused disruption of the complex | 8.9 µM | 11 µM | 13 µM | 500 ± 94 µM | 7.2 µM | – | IC50 ((p)Hsp90-p50^Cdc37; span: phosphorylation of either Hsp90 or p50^Cdc37): 220 to 270 µM; interaction of N-terminal Hsp90β with p50^Cdc37 in the presence of ADP [4]: abolished; IC50 (Hsp90-(p)p50^Cdc37): 270 ± 35 µM
Nc1ncnc2c1ncn2[C@@H]1O[C@H](COP(=O)(O)OP(=O)(O)NP(=O)(O)O)[C@@H](O)[C@H]1O [AMP-PNP] | – | > 1000 µM | > 1000 µM | > 1000 µM | – | 85 µM | 84 µM | 590 µM | > 1000 µM | 148 µM | did not show appreciable inhibitory activity | disruption of the phosphorylated complex ((p)Hsp90-(p)p50^Cdc37): remained largely ineffective
Nc1ncnc2c1ncn2[C@@H]1O[C@H](COP(=O)(O)OP(=O)(O)OP(=O)(O)O)[C@@H](O)[C@H]1O [ATP] | – | 450 ± 150 µM | 230 ± 40 µM | > 1000 µM | stable complex | 4.6 µM | 43 µM | 11 µM | > 1000 µM | 240 µM | – | disruption of the phosphorylated complex ((p)Hsp90-(p)p50^Cdc37): remained largely ineffective; IC50 (Hsp90-(p)p50^Cdc37): > 1000 µM
O=C(O)CCc1nn(Cc2ccc(Cl)cc2Cl)c2cc(C(F)(F)F)ccc12 [H2-GMZ, H2-gamendazole] | – | > 1000 µM | > 1000 µM | > 1000 µM | ineffective | – | – | – | > 1000 µM | – | did not show appreciable inhibitory activity | protection of the complex from ADP in GST pull-down competition ([2]; in the presence of ADP, 0.1 mM radicicol): had no effect; binding potential towards Hsp90β (hHsp90β-FL [3]; Figure 3): failed to display binding potential; inhibitory activity against the complex (Hsp90-p50^Cdc37; listed as H2-gamendazole): did not affect the interaction of Hsp90 with p50^Cdc37 in vitro
CCNC(=O)c1noc(-c2cc(C(C)C)c(O)cc2O)c1-c1ccc(CN2CCOCC2)cc1 [NVP-AUY922] | – | – | – | – | – | – | – | – | – | – | did not show appreciable inhibitory activity | Kd (hHsp90β-FL [1]; ref [32]): 0.0017 µM
C[C@@H]1C[C@H]2O[C@@H]2/C=C\C=C\C(=O)Cc2c(Cl)c(O)cc(O)c2C(=O)O1 [Radicicol] | – | – | – | – | – | – | – | – | – | – | – | Kd (yHsp82-FL): 0.019 µM
COC1=C2C[C@@H](C)C[C@H](OC)[C@H](O)[C@@H](C)/C=C(\C)[C@H](OC(N)=O)[C@@H](OC)/C=C\C=C(/C)C(=O)NC(=CC1=O)C2=O [geldanamycin] | – | – | – | – | – | – | – | – | – | – | – | influence on complex formation [5]: did not influence complex formation
(p)p50^Cdc37: human p50^Cdc37 phosphorylated by CK2 at residue Ser13 | – | – | – | – | – | – | – | 1.9 ± 0.13 µM | – | – | – | –
